The test system of assay [1] is cerulein pancreatitis (CER-AP). The experiment in a line: Drug treatment of cerulein pancreatitis (CER-AP) in WT mice. The format is in vivo, mouse. On the procedure: FIGS. 10A-10N show deranged cholesterol metabolism causes acinar cell damage, while its normalization ameliorates experimental pancreatitis. (A-D) Cholesterol content and trypsin activity were measured (per mg protein) in WT mouse acinar cells incubated for 1 hour without and with methyl-β-cyclodextrin (MCD; 10 mM) or cholesterol-loaded MCD (MCD-Chol; 200 μg/mL), in the presence or absence of 100 nM CCK. Values are expressed relative to those in cells without MCD/MCD-Chol. (E-J) WT mice received daily i.p. injections of the LXR agonist T0901317 (T09), simvastatin (Sim; 20 mg/kg each), or vehicle. On day 4, mice were subjected to CER-AP and pancreata collected for analyses (see also FIG. 20). Cholesterol content (E), trypsin activity (F), and pancreas histopathology (H&E staining; G) were measured. (H, I, L, and N) IB analysis of markers/mediators of autophagy (LC3, p62), ER stress (CHOP, GRP-78), and mitophagy (Parkin). Ub, ubiquitylated proteins. (J) Mitochondrial fragmentation was assessed by immunostaining for Tom20, as detailed in FIG. 7G. (K and L) Mouse acinar cells were treated for 16 hours with LDL (30 μg/mL) or the combination of LDL and 10 μM U18666A. (M and N) Mice received injections of U18666A as detailed in FIG. 9B. Pancreas histopathology (H&E staining; M) and levels of autophagy markers/mediators (N) were measured. Each symbol in A-F and I represents an individual mouse or cell preparation. Values are mean±SEM from 3 to 7 mice or cell preparations per condition. ^§ P<0.05, ^§§ P<0.01 vs. control cells (without MCD/MCD-Chol). ***P<0.001 vs. saline-treated mice. ^#P<0.05, ^##P<0.01, ^###P<0.001 vs. CER-AP alone (no inhibitors). Significance was determined by 2-tailed Student's t test (A-D) or 1-way ANOVA followed by Tukey's multiple comparison test (E, F, and I). Scale bars: 10 μm.
FIGS. 20A-20C show simvastatin improves cerulein pancreatitis. Mice received daily i.p. injections of simvastatin (Sim; 20 mg/kg) or vehicle (see FIG. 10), and on day 4 were subjected to cerulein pancreatitis (CER-AP). (A) Pancreas histopathology (H&E staining; scale: 10 μm). (B) IB analysis of markers/mediators of autophagy (LC3, p62), ER stress (CHOP), and the MLN64/STARD3 protein mediating cholesterol transfer from LE/Ly to mitochondria. Each IB lane represents an individual mouse; ERK1/2 is the loading control. […] Ub, ubiquitylated proteins. (C) Pancreatitis responses. Values are mean±SEM from 7-13 mice for each condition. ***p<0.001 vs saline control. ^###p<0.001 vs CER-AP alone (no simvastatin). Significance was determined by 1-way ANOVA followed by Tukey's multiple comparisons test.
FIGS. 25A-25C show reducing cholesterol overload greatly ameliorates experimental pancreatitis. CER-AP responses were measured in (A) AclyAac or (C) WT mice treated with simvastatin or bempedoic acid (BemA). (B) Acinar cells were transfected with ACLA (or mock) siRNA and subjected to ex-vivo CCK-AP. Each symbol represents an individual mouse or cell preparation. Values are mean±SE. **p<0.01, ***p<0.001 vs saline treated control mice (or mock transfection); #p<0.05, ##p<0.01, ###p<0.001 vs CER/CCK-AP in control mice (i.e. without inhibitors) or cells.
Cerulein-induced (CER-AP) and L-arginine induced (Arg-AP) acute pancreatitis models were performed in 12-week-old C57BL/6 mice that received 7 hourly i.p. injections of 50 μg/kg cerulein or 3 hourly i.p. injections of 3.3 g/kg Arg; controls received physiologic saline injections. Mice were euthanized for analyses 7 hours after the first cerulein or 24 hours after the first Arg injection. Choline deficient, ethionine-supplemented (CDE) pancreatitis was induced in young (~5-weeks old) female mice fed either CDE or control diet. Mice were euthanized 72 hours after the diet initiation. These models have been described in detail (1-7).
12-week-old WT mice were subjected for 4 consecutive days to daily i.p. injections of 20 mg/kg simvastatin (8,9) or 20 mg/kg T0901317 (10); or 10 mg/kg U18666A for 15 days (11). […]

Assay [2] concerns mouse pancreatic acinar cells. The experiment in a line: Ex-vivo CCK-AP in mouse pancreatic acinar cells treated with simvastatin or MCD. Particulars: simvastatin 4 μM, 3 h or MCD 10 mM, 1 h. The format is cell-based. On the procedure:
FIGS. 26A-26D preventing cholesterol overload ameliorates ex-vivo pancreatitis. Mouse pancreatic acinar cells were incubated (A, B) with simvastatin (4 μM, 3 h) or (C, D) cholesterol chelator, methyl-β-cyclodextrin (MCD; 10 mM, 1 h) and then subjected to CCK-AP for 1 (D) or 3 h (A, B). Cholesterol content (A, C) necrosis (B), and trypsin activity (D) were measured. Each symbol represents an individual cell preparation. Values are mean±SEM*p<0/05, **p<0.01 vs control; #p<0.05 ##p<0.01; vs CCK, no inhibitor.
Ex vivo pancreatitis models were performed on mouse and human acinar cells, and human pancreas slices by incubation with supramaximal CCK (100 nM) or carbachol (1 mM), as described previously (80, 81).
Activities of cathepsin (Cat) B and L, caspase-3, trypsin, and lysosomal acid lipase (LAL) were measured in pancreatic tissue or cell homogenates and subcellular fractions with fluorogenic assays using substrates specific for CatB (Z-Arg-Arg-AMC), CatL (Z-Phe-Arg-AMC), caspase-3-like ([…]), trypsin (Boc-Gln-Ala-Arg-AMC), as previously described (1-4, 6, 7); and for LAL (4-methylumbelliferyl oleate), as in (17). In measurements of CatL activity, the assay buffer also contained 50 μM CA-074me, a CatB inhibitor. LAL activity was measured in the absence and presence of the LAL inhibitor lalistat (100 μM) as the difference between these values (17).
Total cholesterol content was measured with Cholesterol Assay kit per manufacturer's instructions. Samples of mouse pancreas and liver, cell pellet homogenates, subcellular fractions, isolated mitochondria, and serum were diluted in the reaction buffer containing cholesterol probe and incubated at 37° C. for 1 h in the dark. To measure total cholesterol, the samples were subjected to digestion with cholesterol esterase. To measure non-esterified cholesterol, the esterase was omitted from the assay.

Setting [3] is: CER-AP, T0901317 or simvastatin 20 mg/kg i.p. daily.
Where [4] appears, read: WT mice treated with simvastatin or BemA.

On to `CCC(C)(C)C(=O)O[C@H]1C[C@@H](C)C=C2C=C[C@H](C)[C@H](CC[C@@H]3C[C@@H](O)CC(=O)O3)[C@H]21` [simvastatin], for which, in assay [1] (CER-AP, 20 mg/kg i.p. daily), the “CER-induced increase in MLN64” value is reported as “abrogated”, the “accumulation of LC3-II” value was “reduced”, the “accumulation of p62” value is “reduced” and the “accumulation of ubiquitylated proteins” value is “reduced”. Besides, the “mitochondrial fragmentation (Tom20 IF)” value in assay [1] (CER-AP, 20 mg/kg i.p. daily) is given as “normalized”. Also, the CHOP levels entry in assay [1] (CER-AP, 20 mg/kg i.p. daily, ER stress) is “decreased”. In addition, in assay [1] (setting [3]), the “pancreatitis-induced increase in total cholesterol” value is “eliminated” and the “pancreatitis-induced increase in trypsin activity” value is given as “eliminated”. The other pancreatitis responses result in assay [1] (CER-AP, simvastatin 20 mg/kg i.p. daily, FIG. 20C) is recorded as “ameliorated”. The “pancreas histopathology in CER-AP” value in assay [1] (H&E, 20 mg/kg i.p. daily) is listed as “improved”. In addition, in assay [1] (setting [4]), the “cholesterol overload in CER-AP (FIG. 25C)” value is “decreased”, the “inflammation in CER-AP (FIG. 25C)” value is “ameliorated”, the “necrosis in CER-AP (FIG. 25C)” value was “ameliorated” and the “trypsin activity in CER-AP (FIG. 25C)” value was “ameliorated”. In addition, in assay [1] (discussion statement), the “pathologic responses of experimental pancreatitis (impaired autophagy, ER stress and others)” value is “reduced”. The “experimental pancreatitis in WT mouse and ex vivo models” value in assay [1] (overall result) is listed as “ameliorated”. Besides, in assay [2], the “cholesterol overload in ex-vivo CCK-AP” value is given as “Reducing”, the “extent of necrosis in ex-vivo CCK-AP” value is on record as “greatly decreased” and the “trypsinogen activation in ex-vivo CCK-AP” value was “greatly decreased”.

The values are drawn from patent US20260325485A1, “COMPOSITIONS AND METHODS FOR TREATING PANCREATITIS” (The United States Government as represented by the …, priority 2022, published 2026).
